Source: publication PMC3164901 (European journal of medicinal chemistry, 2011)
Counter-ions that a name gives are not always drawn.

Experiments:
[1] = target: recombinant human PED10A (Homo sapiens, UniProt Q9Y233); assay: PDE10A enzyme assay, [3H]cAMP scintillation proximity assay; format: biochemical
[2] = test system: rats; conditions: ref [8]; cited from earlier work
[3] = ref [24]; cited from earlier work
[4] = test system: rat; conditions: ref [23]; cited from earlier work
[5] = test system: rats; conditions: ref [8], cited from earlier work
[6] = target: PDE3A (Homo sapiens, UniProt Q14432); assay: PDE3A enzyme assay, [3H]cAMP SPA; format: biochemical
[7] = target: PDE3B (Homo sapiens, UniProt Q13370); assay: PDE3B enzyme assay, [3H]cAMP SPA; format: biochemical
Sequence of PDE3B (Q13370 whole entry, species assumed): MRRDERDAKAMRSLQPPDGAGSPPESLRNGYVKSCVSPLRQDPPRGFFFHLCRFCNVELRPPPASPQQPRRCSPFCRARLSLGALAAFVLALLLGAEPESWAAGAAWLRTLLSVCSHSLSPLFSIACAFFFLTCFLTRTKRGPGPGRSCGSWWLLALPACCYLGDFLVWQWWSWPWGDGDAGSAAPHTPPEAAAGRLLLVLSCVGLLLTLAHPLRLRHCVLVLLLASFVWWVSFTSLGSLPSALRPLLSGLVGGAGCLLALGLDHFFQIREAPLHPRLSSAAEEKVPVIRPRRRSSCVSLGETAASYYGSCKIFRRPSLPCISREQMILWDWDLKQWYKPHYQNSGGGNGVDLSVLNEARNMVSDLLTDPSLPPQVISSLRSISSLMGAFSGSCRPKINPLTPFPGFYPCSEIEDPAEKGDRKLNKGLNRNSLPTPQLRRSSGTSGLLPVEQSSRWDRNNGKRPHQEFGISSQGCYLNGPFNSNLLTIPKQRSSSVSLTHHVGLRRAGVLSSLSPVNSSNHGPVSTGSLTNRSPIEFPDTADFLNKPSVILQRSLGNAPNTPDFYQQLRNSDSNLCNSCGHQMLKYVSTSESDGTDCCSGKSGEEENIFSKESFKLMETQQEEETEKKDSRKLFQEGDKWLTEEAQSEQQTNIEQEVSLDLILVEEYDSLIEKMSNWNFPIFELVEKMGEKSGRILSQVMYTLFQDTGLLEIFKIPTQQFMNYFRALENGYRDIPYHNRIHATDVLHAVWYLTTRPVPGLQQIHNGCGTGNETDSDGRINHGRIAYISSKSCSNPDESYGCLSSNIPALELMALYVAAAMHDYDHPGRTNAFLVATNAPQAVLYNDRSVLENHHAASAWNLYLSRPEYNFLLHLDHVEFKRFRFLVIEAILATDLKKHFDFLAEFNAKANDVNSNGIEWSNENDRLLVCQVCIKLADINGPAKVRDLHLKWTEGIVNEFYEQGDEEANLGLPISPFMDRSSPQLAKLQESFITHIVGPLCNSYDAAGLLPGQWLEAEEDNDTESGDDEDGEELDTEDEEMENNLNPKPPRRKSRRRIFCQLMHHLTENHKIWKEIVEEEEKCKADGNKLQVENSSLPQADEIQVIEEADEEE

Sequence of recombinant human PED10A (Q9Y233 whole entry): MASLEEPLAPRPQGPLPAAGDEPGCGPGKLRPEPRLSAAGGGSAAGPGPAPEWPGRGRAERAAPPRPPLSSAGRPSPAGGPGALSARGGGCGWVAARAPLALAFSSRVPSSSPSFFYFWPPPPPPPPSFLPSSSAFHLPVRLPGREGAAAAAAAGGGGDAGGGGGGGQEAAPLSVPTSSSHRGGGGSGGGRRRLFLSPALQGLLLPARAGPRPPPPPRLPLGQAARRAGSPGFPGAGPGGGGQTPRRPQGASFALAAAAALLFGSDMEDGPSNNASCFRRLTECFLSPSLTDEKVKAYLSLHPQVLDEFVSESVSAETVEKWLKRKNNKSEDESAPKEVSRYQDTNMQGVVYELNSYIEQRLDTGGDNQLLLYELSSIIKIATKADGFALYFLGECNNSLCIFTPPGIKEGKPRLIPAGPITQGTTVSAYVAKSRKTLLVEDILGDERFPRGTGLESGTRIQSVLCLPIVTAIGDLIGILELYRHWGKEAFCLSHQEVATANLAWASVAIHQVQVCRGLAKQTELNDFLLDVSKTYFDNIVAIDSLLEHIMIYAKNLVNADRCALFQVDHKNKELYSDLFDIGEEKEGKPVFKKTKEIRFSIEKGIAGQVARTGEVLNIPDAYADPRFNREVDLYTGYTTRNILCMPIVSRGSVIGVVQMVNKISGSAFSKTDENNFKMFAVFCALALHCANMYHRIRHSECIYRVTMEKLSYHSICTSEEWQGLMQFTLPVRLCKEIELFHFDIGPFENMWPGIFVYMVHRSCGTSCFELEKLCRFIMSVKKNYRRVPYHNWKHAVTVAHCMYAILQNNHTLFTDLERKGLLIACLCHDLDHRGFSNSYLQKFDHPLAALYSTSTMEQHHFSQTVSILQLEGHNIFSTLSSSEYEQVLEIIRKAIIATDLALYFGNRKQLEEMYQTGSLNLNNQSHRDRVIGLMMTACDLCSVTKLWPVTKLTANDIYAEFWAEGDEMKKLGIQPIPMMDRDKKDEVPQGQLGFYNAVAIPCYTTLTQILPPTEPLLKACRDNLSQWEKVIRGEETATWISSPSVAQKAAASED
Sequence of PDE3A (Q14432 whole entry, species assumed): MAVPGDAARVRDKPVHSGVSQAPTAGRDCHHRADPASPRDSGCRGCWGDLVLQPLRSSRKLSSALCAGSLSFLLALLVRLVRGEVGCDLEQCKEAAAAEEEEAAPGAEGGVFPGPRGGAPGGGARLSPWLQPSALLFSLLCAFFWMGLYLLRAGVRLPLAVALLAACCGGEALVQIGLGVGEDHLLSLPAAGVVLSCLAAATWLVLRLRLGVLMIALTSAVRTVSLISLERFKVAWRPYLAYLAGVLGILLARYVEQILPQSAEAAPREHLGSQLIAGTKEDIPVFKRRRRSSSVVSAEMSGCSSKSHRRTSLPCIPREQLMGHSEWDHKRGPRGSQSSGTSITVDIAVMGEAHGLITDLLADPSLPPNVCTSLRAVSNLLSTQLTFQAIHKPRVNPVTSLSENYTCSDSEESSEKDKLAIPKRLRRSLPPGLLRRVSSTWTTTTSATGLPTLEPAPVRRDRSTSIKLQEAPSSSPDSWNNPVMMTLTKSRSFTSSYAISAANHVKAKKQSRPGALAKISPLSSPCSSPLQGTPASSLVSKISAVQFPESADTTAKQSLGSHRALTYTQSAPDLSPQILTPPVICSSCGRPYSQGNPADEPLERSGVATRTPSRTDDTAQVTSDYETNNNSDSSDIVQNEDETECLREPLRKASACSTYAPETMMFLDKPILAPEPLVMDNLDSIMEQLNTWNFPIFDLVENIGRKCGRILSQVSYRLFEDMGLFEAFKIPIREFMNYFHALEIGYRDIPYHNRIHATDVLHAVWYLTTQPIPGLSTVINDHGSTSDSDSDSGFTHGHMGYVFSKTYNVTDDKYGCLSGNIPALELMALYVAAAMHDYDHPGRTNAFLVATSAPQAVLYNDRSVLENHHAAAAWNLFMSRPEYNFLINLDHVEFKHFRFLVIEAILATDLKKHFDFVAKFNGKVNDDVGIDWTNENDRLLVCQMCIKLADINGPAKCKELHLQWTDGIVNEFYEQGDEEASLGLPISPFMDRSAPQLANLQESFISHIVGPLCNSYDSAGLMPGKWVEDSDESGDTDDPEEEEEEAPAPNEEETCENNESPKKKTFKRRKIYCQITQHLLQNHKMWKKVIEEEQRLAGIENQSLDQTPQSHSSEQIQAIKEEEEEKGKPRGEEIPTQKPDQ

COc1cc(Cc2nccc3cc(OC)c(OCCF)cc23)cc(OC)c1 [6l, 1-(3,5-Dimethoxybenzyl)-7-(2-fluoroethoxy)-6-methoxyisoquinoline oxalate]
IC50 [1]: 262 ± 1.1 nM

COc1cc2ccnc(Cc3ccc(OCCOCCF)c(OC)c3)c2cc1OC.O=C(O)C(=O)O [8c, 1-(4-(2-(2-Fluoroethoxy)ethoxy)-3-methoxybenzyl)-6,7-dimethoxyisoquinoline oxalate]
increase of PDE10A affinity versus 8b ([1]; 4-fluoroethoxy extended to 4-(2-(2-fluoroethoxy))ethoxy): 2 fold

Cn1cc(-c2ccncc2)c(-c2ccc(OCc3ccc4ccccc4n3)cc2)n1 [MP-10]
hyperactivity induced by phenylcyclohexylpiperidine (PCP) and amphetamine [2]: able to reduce hyperactivity

COc1cc2ncnc(C3CC[C@H](Oc4cnc5ccccc5n4)C3)c2cc1OC (stereo partly shown) [PQ-10]
hyperactivity induced by phenylcyclohexylpiperidine (PCP) and amphetamine [2]: able to reduce hyperactivity

COc1ccc(Cc2nccc3cc(OC)c(OC)cc23)cc1OC [Papaverine, 1-(3,4-dimethoxybenzyl-6,7-dimethoxy)isoquinoline]
in vivo metabolism [3]: rapid in vivo metabolism | efficacy in novel object recognition [4]: shown efficacy | hyperactivity induced by phenylcyclohexylpiperidine (PCP) and amphetamine [2]: able to reduce hyperactivity | catalepsy on its own ([5]; compound alone): did not cause catalepsy on its own | effect on cataleptic effect of the D2 receptor antagonist haloperidol ([5]; with haloperidol): potentiated the cataleptic effect

FC(F)(F)Cn1cc(-c2ccncc2)c(-c2ccc(OCc3ccc4ccccc4n3)cc2)n1 [TP-10]
hyperactivity induced by phenylcyclohexylpiperidine (PCP) and amphetamine [2]: able to reduce hyperactivity

COc1ccc(Cc2ncnc3cc(OC)c(OC)cc23)cc1 [compound 11, 6,7-Dimethoxy-4-(4-methoxybenzyl)quinazoline oxalate]
IC50 [6]: 3980 ± 510 nM | IC50 [7]: 3100 ± 270 nM | IC50 [1]: 48.8 ± 1.07 nM
